Reference: US4670469A, “Hydroxamic acid and pharmaceutical preparations containing the same” (VEB Arzneimittelwerk Dresden, priority 1983, dated 1987)
Values joined by “and” are separate entries in the source; they are usually repeats but may differ in a detail not shown here. Equal values may be shown once.

Legend:
thrombocyte aggregation = assay: Arachidonic acid-induced thrombocyte aggregation in thrombocyte-rich plasma; assay type: cell-based, humans; details: Homo sapiens; 0.8 mM arachidonic acid; concentration giving total restraint of aggregation
Source text: Since with the new medicines the restraints of lipoxygenase has been identified as a molecular type of attack, also their influence on the thrombocyte-aggregation has been tested. The essential role of the lipoxygenase pathway for irreversibility of the thrombocyte aggregation is now known. (C. E. Dutilh et al. Prostaglandins and Medicine 6, 111 (1981)). The key role is attributed to the irreversibility of the thrombocyte aggregation in the pathogenesis of thrombotic illnesses. […] In the experiments, the thrombocyte aggregation was triggered either by means of arachidonic acid or by means of platelet activation factor (PAF-Acether).
The testing of the compounds for antithrombotic and thrombolytic activity follows in authentic cell systems of humans in vitro. Thrombocyte-rich plasma from the blood of healthy donors is obtained by centrifugation at 1,000×g. The measurement of the thrombocyte aggregation follows by means of an aggregometer based upon diffuse light scattering or light absorption of the produced cell aggregate. The thrombocyte-rich plasma is pre-incubated at 37° C. for 3 minutes with the active substance or substances; thereafter the thrombocyte aggregation is triggered through the addition of either 0.8 mM arachidonic acid or 1 μM platelet activation factor (PAF-acether). The preparations are then stirred with a velocity of 800 rpm. Indeed according to the employed active substance concentration there occurs either a strong delay or a complete inhibition of the thrombocyte aggregation.

[1] = target: T1, lipoxygenase from soybeans (Glycine max, UniProt P08170); assay: Inhibition of lipoxygenase from soybeans; assay type: biochemical; details: pH 7.4, read-out: inhibition of soybean lipoxygenase
T1 construct: host or cells: soybeans
T1 sequence (P08170 1-839): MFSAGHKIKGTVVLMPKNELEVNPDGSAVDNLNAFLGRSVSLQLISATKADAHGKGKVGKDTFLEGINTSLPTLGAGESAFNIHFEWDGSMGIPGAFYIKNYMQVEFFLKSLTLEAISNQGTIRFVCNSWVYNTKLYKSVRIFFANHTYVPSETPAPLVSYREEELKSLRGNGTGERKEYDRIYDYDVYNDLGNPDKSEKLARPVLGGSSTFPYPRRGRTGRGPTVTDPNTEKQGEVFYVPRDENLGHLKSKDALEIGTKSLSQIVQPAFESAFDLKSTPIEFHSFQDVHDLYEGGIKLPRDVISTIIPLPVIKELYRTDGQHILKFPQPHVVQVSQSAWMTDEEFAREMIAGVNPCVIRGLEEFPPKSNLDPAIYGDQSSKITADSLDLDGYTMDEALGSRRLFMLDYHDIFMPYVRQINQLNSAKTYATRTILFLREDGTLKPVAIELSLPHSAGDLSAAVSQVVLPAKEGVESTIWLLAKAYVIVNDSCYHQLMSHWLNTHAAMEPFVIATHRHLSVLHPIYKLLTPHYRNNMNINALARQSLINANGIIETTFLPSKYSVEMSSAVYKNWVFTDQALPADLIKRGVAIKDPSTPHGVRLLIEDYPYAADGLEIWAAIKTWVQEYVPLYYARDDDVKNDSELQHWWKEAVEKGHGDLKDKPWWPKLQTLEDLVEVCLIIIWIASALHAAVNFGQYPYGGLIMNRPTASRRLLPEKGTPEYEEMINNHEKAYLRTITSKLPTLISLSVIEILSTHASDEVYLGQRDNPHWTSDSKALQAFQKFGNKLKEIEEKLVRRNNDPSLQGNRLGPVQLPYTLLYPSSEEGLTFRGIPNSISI
Description: The inhibition of thrombocyte aggregation is likewise ascribed to the inhibition of lipoxygenase in the cells. It has thus been shown that the arachidonate-lipoxygenase activity of a microsome-free lysate of human thrombocyte concentrates is inhibited to the extent of 100% by means of 0.25 mM salicylhydroxamic acid. Moreover, it has been shown that also a series of further lipoxygenases are inhibited by means of the here described hydroxamic acids. The lipoxygenase from soybeans reacts the most insensitive, i.e. it is inhibited by means of 1 mM salicylhydroxamic acid at pH 7.4 to an extent of 60% and by means of 0.4 mM 2-hydroxy-1-napthylhydroxamic acid to an extent of 54%. In contrast, for the lipoxygenase from peas which come closer in their characteristics to human lipoxygenase, the following I50 -values are provided: salicyl hydroxamic acid, 5 μM, 2-hydroxy-1-napthylhydroxamic acid, 2 μM, 2(2'-napthoxy)-acethydroxamic acid, 2 μM. Moreover it has been shown that the formation lipoxygenase products of arachidonic acid in in vitro cultivated aorta endothelial cells of calves is hindered through 0.1 mM 2-hydroxy-1-napthylhydroxamic acids.

[2] = test system: histamine-induced bronchoconstriction in guinea pigs; assay: Inhibition of histamine-induced bronchoconstriction in guinea pigs in vivo
Description: Accordingly, this complete animal model is called upon for further experimental determination of the anti-asthmatic activity of compounds of Formula I. The following describes a representative experiment with salicylhydroxamic acid (SHAM) in […] male guinea pigs. SHAM is applied in a dose of 95 mg/kg body weight; this dose lies a power of ten below the determined values for acute toxicity (LD50 -value).
After urethane narcosis, a flexible catheter is introduced into the V. jugularis dext. of each animal. After a tracheotomy a tracheotubular needle is inserted for respiration. Then, after muscle relaxation with Pavulon, mechanical respiration follows in a Body-Plethysmograph (16 min^-1, I/E=1/1, pI =20 cmH2 O; Muller et al., 1976; Oddoy et al., 1982).
Over a tubular flesh needle at the outwardly led tracheotubular needle, the breath volume per draw of breath is measured by means of a pneumotachograph. The values are separately integrated and registered with a light recorder.
After 3 minutes calm breathing with registration of the parameter, three animals are dosed each with 2.5 ml SHAM-solution (isotonic, 37° C., 0.1M), i.v. (SHAM was dissolved in water directly before the test by heating, and the solution was cooled quickly in an 37° C. water bath.)
After 5 minutes further observation there follows the delivery of 5 μg/kg KM Histamine i.v. for providing a submaximal bronchospasm. After a further 5 minutes, 50 μg/kg KM Histamine are injected i.v. This leads according to experience to a fast, complete bronchial spasm ("silent chest"). After registration of the breath volume over a further 5 minutes, the test is completed.
In 3 animals serving as control group, with otherwise analogous procedure, instead of SHAM, 2.5 ml isotonic NaCl-solution are applied.
The calm- and the 5-minute values are mean values (in cm amplitude) from each 5 draws of breath.
The values after the Histamine injections represent the draw of breath having the smallest volume (3rd to 5th draw of breath after injection).

[3] = test system: histamine-induced bronchoconstriction in guinea pigs; assay: as above; details: individual animals; second histamine injection; listed as SHAM
[4] = individual animals, draw of breath having the smallest volume, listed as SHAM
[5] = individual animals, listed as SHAM

SMILES | IC100 (thrombocyte aggregation) | inhibition at 1000 µM [1] | volume change, after 5 min ([2]; average value for n = 3, 5 min after first histamine injection) | volume change, after 5 min ([2]; average value for n = 3, 5 min after second histamine injection) | volume change, after 5 min ([2]; average value for n = 3, after SHAM i.v.) | volume change, after 5 μg/kg Histamine ([2]; average value for n = 3, first histamine injection) | volume change, after 5 μg/kg Histamine ([2]; average value for n = 3, second histamine injection) | breath volume after i.v. injection ([2]; before histamine) | V-5 min after SHAM (breath volume change) ([2]; individual animals, 2.5 ml 0.1M SHAM i.v., cm amplitude) | volume change, after 5 min ([2]; individual animals, 5 min after first histamine injection, listed as SHAM) | volume change, after 5 min ([2]; individual animals, 5 min after second histamine injection, listed as SHAM) | V after 5 μg Hist. i.v. [2, 4] | V after 50 μg Hist. i.v. [2, 4] | volume change, after 5 μg/kg Histamine ([2]; individual animals, first histamine injection, listed as SHAM) | V-5 min thereafter (after 5 μg Hist.) [2, 5] | V-5 min thereafter (after 50 μg Hist.) [2, 5] | volume change, after 5 min ([2]; individual animals, percent of the starting draw volume, after SHAM i.v.) | bronchial spasm after histamine injections ([2]; pre-treated animals versus control group) | spontaneous regression of histamine induced bronchial spasm ([2]; treated animals versus control group) | volume change, after 5 μg/kg Histamine [3]
O=C(COc1ccc2ccccc2c1)NO [2(2'-naphthoxy)-acethydroxamic acid] | 60 µM | – | – | – | – | – | – | – | – | – | – | – | – | – | – | – | – | – | – | –
O=C(NO)c1ccccc1O [salicylhydroxamic acid] | – | 60% | +7% | -20% | +7.7% | -18% | -68.9% | insignificant rise | +0.1 cm and +0.2 cm and +0.45 cm | +5% and +10% and +7.2% | -04% and -22% and -35% | -0.4 cm and -2.2 cm | -2.4 cm and -4.4 cm and -1.6 cm | -8% and -48% and 0% | +0.26 cm and +0.48 cm and +0.19 cm | -0.2 cm and -1.0 cm and -0.9 cm | +2% and +4% and +17% | smaller bronchial spasm than the animals of the control group | more quickly and more extensively than in the control group | -49% and -95.7% and -62%
